Experiments:
RAW 264.7 cells = assay: NO production induced by LPS, NO2- concentration in medium; type: cell-based, mouse; conditions: for inhibition of NO production (in words): RAW264.7, aqueous 100 mM solution used as sample
Procedure: (1) RAW 264.7 cells (ATCC TIB 71) were suspended in phenol red-free Dulbecco's modified Eagle's medium containing 10% fetal bovine serum (manufactured by Gibco) and 2 mM L-glutamine (manufactured by Life Technologies Oriental, 25030-149) at a concentration of 3×10^5 cells/ml, and 500 μl portions thereof were seeded to respective wells of a 48-well microtiter plate and incubated at 37° C. for 12 hours in the presence of 5% CO2. To each well were added 10 μl of 25 μg/ml lipopolysaccharide (LPS, manufactured by Sigma, L-2012) and 10 μl of aqueous 5000, 1500, 500, 150 or 50 μM agarobiose or neoagarobiose (manufactured by Sigma, G4410) solution, and the plate was incubated for additional 12 hours. Then, concentration of NO2^− produced by oxidation of NO in the medium was measured. As control groups, a group to which LPS was not added and a group to which agarobiose or neoagarobiose was not added were provided.
After incubating as described above, 100 μl of 4% Greece reagent (manufactured by Sigma, G4410) was added to 100 μl of the medium, and the mixture was allowed to stand for 15 minutes at room temperature. Then, the absorbance at 490 nm was measured. NO2^− concentration in the medium was calculated with reference to a calibration curve prepared by using NaNO2 at given concentrations dissolved in the same medium as that described above. All the measurements were carried out in triplicate.
(2) A suspension of 5 g of commercially available agar (Ina agar type S-7, manufactured by Ina Shokuhin Kogyo) in 45 ml of 0.1 N HCl was treated at 95° C. for 13 minutes. After cooling to room temperature, the suspension was neutralized with NaOH and filtered through 0.22 μm MILLEX-GP filter (manufactured by Milipore, SLGPR25LS). […] Namely, 10 μl of 25 μg/ml LPS and 10 μl of a 20-fold dilution of the sample mentioned above were added to wells of a 48 well microtiter plate containing RAW264.7 cells which had been incubated in the wells. The measurement was carried out with the culture medium. As control groups, a group to which LPS was not added, a group to which a sample was not added and a group to which 2.5 mM citric acid was added were provided. All the measurement were carried out in duplicate.

HL-60 cells [1] = assay: apoptosis-inducing assay, cell morphology under an optical microscope; type: cell-based, human
Procedure: Human promyelocytic leukemia cell HL-60 (ATCC CCL-240) was incubated at 37° C. in RPMI 1640 medium (manufactured by Gibco) supplemented with 10% of fetal bovine serum (JRH Bioscience) which had been treated at 56° C. for 30 minutes, and suspended in the same medium at a concentration of 500 cells/90 μl. Each 90 μl portion of the suspension was distributed into each well of a 96 well plate (manufactured by Falcon). To the suspension in each well was added 10 μl of the above-mentioned acid decomposition solution, a 10-fold dilution of the solution or water, and incubated with 5% CO2 at 37° C. After 24 hour and 48 hour from the initiation of the incubation, the cell morphology was observed under an optical microscope. Then, according to the MTT method described in “Apoptosis Jikken Protocol” (Syuzyun-sha, Tanuma, Seiichi ed., pp. 156 (1994)), 5 mg/ml of 3-(4,5-dimethylthiazole-2-yl)-2,5-diphenyltetrazolium bromide (manufactured by Sigma) and 10 μl of phosphate buffered saline solution were added to the culture and the incubation was continued for additional 4 hours. Then, 100 μl of 2-propanol containing 0.04 N hydrochloric acid was added to the culture, and the mixture was thoroughly stirred. An absorbance at 590 nm was measured and the number of viable cells was calculated from the absorbance measured for each of the wells, which was compared each other.
Each elution peak was fractionated, collected, evaporated to dryness under reduced pressure and then dissolved in 300 μl of water. Each fraction was sterilized by filtration and its 10 μl portion was placed in a well of a 96 well microtiter plate. Then, 90 μl of RPMI 1640 medium (manufactured by Nissui) containing 10% fetal bovine serum (manufactured by Gibco) and 5,000 HL-60 cells (ATCC CCL-240) was added thereto, followed by incubation at 37° C. for 48 hours with 5% CO2. The cell morphology was observed under an optical microscope. Then, 5 mg/ml 3-(4,5-dimethylthiazole-2-yl)-2,5-diphenyltetrazolium bromide and 10 μl of phosphate buffered saline solution were added thereto and the incubation was continued for additional 4 hours. To the culture was added 100 μl of 2-propanol containing 0.04 N hydrochloric acid and the resultant mixture was thoroughly stirred. The absorbance at 590 nm was measured to determine a cell proliferation rate.

HL-60 cells [2] = assay: antiproliferation assay, MTT method, absorbance at 590 nm; type: cell-based, human; conditions: for antiproliferation activity against HL-60 cells (in words): preparations and fractions, compared with control to which water was added
[3] = test system: lipid peroxide radical production; assay: inhibition of lipid peroxide radical production (tert-butyl hydroperoxide, bacterial growth readout); type: cell-based, Staphylococcus aureus 3A; set-up: key to growth of the bacterium (activity of inhibiting lipid peroxide radical production): + represents the sample in which the growth of the bacterium was observed; −represents the sample in which the growth of the bacterium was not observed
Procedure: Staphylococcus aureus 3A (National Collection Of Type Culture, NCTC 8319) was inoculated into 5 ml of brain heart infusion medium (manufactured by Difco, 0037-17-8) and cultured at 37° C. overnight. The bacterial cells were collected by centrifugation, washed with phosphate buffered saline 3 times and then suspended in phosphate buffered saline at a concentration of 1×10^7 colony forming units/ml. A mixture of 100 μl of the cell suspension, 100 μl of an aqueous sample solution, 100 μl of aqueous 1 mg/ml methemoglobin (manufactured by Sigma M9250) solution, 600 μl of phosphated buffered saline and 100 μl of aqueous 50 mM tert-butyl hydroperoxide (manufactured by Katayama Kagaku, 03-4990) solution were reacted at 37° C. for 30 minutes. To the reaction mixture was added 1 ml of 2×NMP medium [prepared by dissolving 8 g of nutrient broth (manufactured by Difco, 0003-01-6), 5 g of trypton (manufactured by Difco, 0123-17-3), 5 g of NaCl, 10 g of mannitol (manufactured by Nacalai Tesque, 213-03) and 0.035 g of phenol red (manufactured by Nacalai Tesque, 268-07) in distilled water to make the volume up to 500 ml. The pH was adjusted to 7.5 with NaOH and then the mixture was sterilized by filtration] to stop the reaction. The resultant mixture was diluted every 3-folds with NMP medium (prepared by diluting 2×NMP medium 2-folds with sterilized water) to prepare 12 serial dilutions and 160 μl of each dilution was placed in each well of a 96-well microtiter plate. The plate was incubated at 37° C. overnight.
In Table 14, + represents the sample in which the growth of the bacterium was observed, and −represents the sample in which the growth of the bacterium was not observed. The concentration shown in the uppermost line of the table is that of the sample in the reaction mixture in which the sample was reacted with tert-butyl hydroperoxide and the bacterial cells at 37° C. for 30 minutes.

HL-60 cells [4] = assay: viable cell count with Trypan Blue under a microscope; type: cell-based, human; conditions: final concentration 250 μM or 125 μM
Procedure: Agarobiose, agarotetraose, agarohexaose and agarooctaose (hereinafter, sometimes, these oligosuccharaides are referred to as agarooligosaccharides) obtained in Example 5 were dissolved in water at a concentration of 2.5 mM or 1.25 mM separately, and were sterilized by filtration. HL-60 cells were suspended in RPMI 1640 medium containing 10% fetal bovine serum at a concentration of 2.5×10^5 cells/4.5 ml and to this suspension was added 0.5 ml of each of the oligosaccharide solutions. The resultant mixture were incubated with 5% CO2 at 37° C. for 24 hours or 48 hours. A part of the cell culture was taken up, followed by addition of Trypan Blue thereto and observing under a microscope to count the number of viable cells.
That is, FIG. 14 illustrates the relation between the incubation time and the number of viable cells when HL-60 cells were cultured with addition of one of the oligosaccharides at the final concentration of 250 μM. FIG. 15 illustrates the relation between the incubation time and the number of viable cells when HL-60 cells were cultured with addition of one of the oligosaccharides at the final concentration of 125 μM. In FIGS. 14 and 15, the horizontal axes represent the incubation time (hrs.) and the vertical axes represent the number of viable cells (× 10^5/5 ml). The closed circle (●) represents the addition of water (control), the open diamond (⋄) represents the addition of agarobiose, the open circle (◯) represents the addition of agarotetraose, the open triangle (Δ) represents the addition of agarohexaose and the open square (□) represents the addition of agarooctaose.

O=C[C@H](O)[C@H]1OC[C@@H](O)[C@@H]1O [3,6-anhydro-D-galactose]
inhibition of NO production (in words) (RAW 264.7 cells): inhibited NO production

O=C[C@@H](O)[C@@H]1OC[C@H](O)[C@H]1O [3,6-anhydro-L-galactose]
apoptosis corpuscles (HL-60 cells [1]; final concentration of 1 mM): apoptosis corpuscles were observed | absorbance at 590 nm relative to that of the control group to which water was added (HL-60 cells [2]; HL-60, final concentration of 1 mM): less than one-half

O=C[C@H](O)[C@@H](O)[C@@H](O)[C@H](O)CO [Galactose, galactose, reference compound]
growth of the bacterium (activity of inhibiting lipid peroxide radical production) ([3]; 0.1 mM sample in the reaction mixture): − | growth of the bacterium (activity of inhibiting lipid peroxide radical production) ([3]; 1 mM sample in the reaction mixture): − | inhibition of NO production (in words) (RAW 264.7 cells): did not

OC[C@H]1OC(O)[C@H](O)[C@@H](O[C@@H]2O[C@H]3CO[C@@H]([C@@H]2O)[C@@H]3O)[C@H]1O (stereo partly drawn) [neoagarobiose, reference compound]
inhibition of NO production induced by LPS (in words) (RAW 264.7 cells; RAW 264.7, 10 μl of 5000 to 50 μM solution per 500 μl well, 12 hours): did not

CO[C@H](C=O)[C@@H]1OC[C@H](O)[C@H]1O[C@@H]1O[C@H](CO)[C@H](O)[C@H](O)[C@H]1O [β-D-galactopyranosyl-(1→4)-3,6-anhydro-2-O-methyl-L-galactose]
antiproliferation activity against HL-60 cells (in words) (HL-60 cells [2]): strong antiproliferation activity | antiproliferation activity against HL-60 cells (in words) (HL-60 cells [2]; listed as group 3): an antiproliferation activity was observed

O=C[C@H](O)[C@H]1OC[C@@H](O)[C@@H]1O[C@@H]1O[C@H](CO)[C@H](OS(=O)(=O)O)[C@H](O)[C@H]1O [κ-carabiose, β-D-galactopyranosyl-4-sulfate-(1→4)-3,6-anhydro-D-galactose]
apoptosis corpuscles under an optical microscope (HL-60 cells [1]; 156 μM): apoptosis corpuscles were observed | apoptosis-inducing activity (apoptosis corpuscles, in words) (HL-60 cells [1]; preparations and fractions): apoptosis corpuscles were observed | cell proliferation suppressed as compared with the control group (HL-60 cells [2]; HL-60, κ-carabiose at 156 μM): about 70% | antiproliferation activity against HL-60 cells (in words) (HL-60 cells [2]): cell proliferation was inhibited

agarooctaose
apoptosis corpuscles (HL-60 cells [4]): apoptosis corpuscles were observed | number of viable cells as compared with the group to which water was added (HL-60 cells [4]; 24 hours or 48 hours): decreased
